Experimental data taken from paper PMC11129182, “Development of Inhibitors, Probes, and PROTAC Provides a Complete Toolbox to Study PARK7 in the Living Cell” (Journal of Medicinal Chemistry, 2024).
Read-outs that look alike come from different tables or passages of the source.

Target: T1, PARK7 (Homo sapiens, UniProt Q99497)
T1 sequence (Q99497 1-189): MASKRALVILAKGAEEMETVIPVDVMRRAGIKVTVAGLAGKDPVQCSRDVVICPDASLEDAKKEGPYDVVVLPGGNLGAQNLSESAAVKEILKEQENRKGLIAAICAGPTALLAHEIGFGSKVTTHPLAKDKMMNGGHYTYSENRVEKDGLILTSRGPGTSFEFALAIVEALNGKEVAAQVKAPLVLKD
Assay: High-throughput screen of the crude compound library, PARK7 fluorescence polarization (FP) assay with FP reagent JYQ-107
Format: biochemical
Settings: read-out: HTS FP assay %Inhibition (1.25 µM)
Text: Therefore, taking JYQ-88 as a starting point, we conducted an optimization to further improve the molecule in terms of inhibitory potency, specificity, and cellular uptake. […] First, a small tailored library was designed and synthesized to investigate whether the introduction of larger, hydrophilic substituents on JYQ-88 would enhance the interaction with the PARK7 pocket. […] The second approach involved the generation of a compound library containing diverse substituents at the azidomethyl position. […] We next performed a high-throughput screen of this crude compound library using our in-house developed PARK7 fluorescence polarization (FP) assay.[15]

[1] = 1.25 µM, crude compound library

Structure (SMILES) | inhibition at 1.25 µM [1] [%] | inhibition at 1.25 µM [%]
N#CN1CC[C@@H](C(=O)Nc2nc3c(s2)CNCC3)C1 [amine] |  | 39.9
N#CN1CC[C@@H](C(=O)Nc2nc3c(s2)CN(C(=O)c2nc(N4CCCC4)ncc2Cl)CC3)C1 [compound 6] | 71.7 | 
N#CN1CC[C@@H](C(=O)Nc2nc3c(s2)CN(C(=O)C(Cc2c[nH]cn2)NS(=O)(=O)c2ccc(Cl)cc2)CC3)C1 (some centres unmarked) [compound 7] | 67.3 | 
N#CN1CC[C@@H](C(=O)Nc2nc3c(s2)CN(C(=O)Cc2csc(-c4cnccn4)n2)CC3)C1 [compound 8] | 71.4 | 
N#CN1CC[C@@H](C(=O)Nc2nc3c(s2)CN(C(=O)CCN(Cc2ccccc2)S(=O)(=O)c2c(Cl)cccc2Cl)CC3)C1 [compound 9] | 69.7 | 
N#CN1CC[C@@H](C(=O)Nc2nc3c(s2)CN(C(=O)c2ncoc2-c2cccs2)CC3)C1 [compound 10] | 77.3 | 
Cc1ccc(-n2c(C)ccc2C)c(C(=O)N2CCc3nc(NC(=O)[C@@H]4CCN(C#N)C4)sc3C2)c1 [compound 12] | 66.6 | 
N#CN1CC[C@@H](C(=O)Nc2nc3c(s2)CN(C(=O)Cc2csc(COc4ccc(Cl)cc4)n2)CC3)C1 [compound 13] | 75.4 | 
N#CN1CC[C@@H](C(=O)Nc2nc3c(s2)CN(C(=O)Cc2cc(-c4ccccc4)on2)CC3)C1 [compound 14] | 73 | 
N#CN1CC[C@@H](C(=O)Nc2nc3c(s2)CN(C(=O)Cc2ccc(S(=O)(=O)N4CCCC4)s2)CC3)C1 [compound 15] | 69.5 | 
CN(C(=O)c1cccs1)c1ccccc1C(=O)N1CCc2nc(NC(=O)[C@@H]3CCN(C#N)C3)sc2C1 [compound 16] | 63 | 
CN1CCN(c2ccccc2C(=O)N2CCc3nc(NC(=O)[C@@H]4CCN(C#N)C4)sc3C2)CC1 [compound 17] | 51.2 | 
Cn1cc(-c2ocnc2C(=O)N2CCc3nc(NC(=O)[C@@H]4CCN(C#N)C4)sc3C2)cn1 [compound 18] | 60.9 | 
N#CN1CC[C@@H](C(=O)Nc2nc3c(s2)CN(C(=O)c2cc(S(N)(=O)=O)ccc2-c2cccc(C(F)(F)F)c2)CC3)C1 [compound 19] | 69 | 
N#CN1CC[C@@H](C(=O)Nc2nc3c(s2)CN(C(=O)c2cnoc2-c2cccs2)CC3)C1 [compound 20] | 73 | 
N#CN1CC[C@@H](C(=O)Nc2nc3c(s2)CN(C(=O)c2ccc(OCc4ccncc4)cc2)CC3)C1 [compound 21] | 59.5 | 
N#CN1CC[C@@H](C(=O)Nc2nc3c(s2)CN(C(=O)C2CCN(Cc4ccc(Cl)s4)CC2)CC3)C1 [compound 23] | 68.4 | 
N#CN1CC[C@@H](C(=O)Nc2nc3c(s2)CN(C(=O)C2CC(=O)N(c4cnccn4)C2)CC3)C1 (some centres unmarked) [compound 24] | 71.4 | 
CCC(C(=O)N1CCc2nc(NC(=O)[C@@H]3CCN(C#N)C3)sc2C1)n1nnc(-c2ccsc2)n1 (some centres unmarked) [compound 25] | 65.2 | 
Cc1cnn(-c2c(C(=O)N3CCc4nc(NC(=O)[C@@H]5CCN(C#N)C5)sc4C3)c(C)nn2C)c1 [compound 26] | 61.4 | 
N#CN1CC[C@@H](C(=O)Nc2nc3c(s2)CN(C(=O)c2csc(-c4ncccn4)n2)CC3)C1 [compound 27] | 80.8 | 
N#CN1CC[C@@H](C(=O)Nc2nc3c(s2)CN(C(=O)c2ncoc2C2CC2)CC3)C1 [compound 28] | 85.7 | 
N#CN1CC[C@@H](C(=O)Nc2nc3c(s2)CN(C(=O)CC(O)(c2nccn2Cc2ccccc2)C(F)(F)F)CC3)C1 (some centres unmarked) [compound 29] | 78.4 | 
Cc1ccc(NS(=O)(=O)c2cccc(C(=O)N3CCc4nc(NC(=O)[C@@H]5CCN(C#N)C5)sc4C3)c2)cc1 [compound 31] | 83.8 | 
N#CN1CC[C@@H](C(=O)Nc2nc3c(s2)CN(C(=O)[C@@H]2C[C@H]2c2ccco2)CC3)C1 [compound 32] | 87 | 
Cn1ncc(C(=O)N2CCc3nc(NC(=O)[C@@H]4CCN(C#N)C4)sc3C2)c1-n1cccc1 [compound 33] | 87 | 
N#CN1CC[C@@H](C(=O)Nc2nc3c(s2)CN(C(=O)C2(n4cnnn4)CC2)CC3)C1 [compound 34] | 65.7 | 
N#CN1CC[C@@H](C(=O)Nc2nc3c(s2)CN(C(=O)C2CC(OCc4ccccc4)C2)CC3)C1 (some centres unmarked) [compound 35] | 78.9 | 

Now from value to molecule, other results behind:

inhibition at 1.25 µM [1] [%] | Structure (SMILES) | inhibition at 1.25 µM [%]
65.2 | N#CN1CC[C@@H](C(=O)Nc2nc3c(s2)CN(C(=O)C2(n4cnnn4)CCOCC2)CC3)C1 [compound 36] | 
73.8 | N#CN1CC[C@@H](C(=O)Nc2nc3c(s2)CN(C(=O)c2noc(Cc4ccccc4F)n2)CC3)C1 [compound 37] | 
69 | CCn1cc(S(=O)(=O)N2CCC(C(=O)N3CCc4nc(NC(=O)[C@@H]5CCN(C#N)C5)sc4C3)CC2)cn1 [compound 38] | 
63.3 | N#CN1CC[C@@H](C(=O)Nc2nc3c(s2)CN(C(=O)[C@@H]2CCO[C@H]2c2ccccc2)CC3)C1 [compound 39] | 
68.9 | N#CN1CC[C@@H](C(=O)Nc2nc3c(s2)CN(C(=O)c2cnnn2-c2ccccc2Cl)CC3)C1 [compound 40] | 
66.3 | N#CN1CC[C@@H](C(=O)Nc2nc3c(s2)CN(C(=O)c2cnn(-c4ccncc4)c2)CC3)C1 [compound 41] | 
69.7 | N#CN1CC[C@@H](C(=O)Nc2nc3c(s2)CN(C(=O)c2snnc2-c2ccc(Br)cc2)CC3)C1 [compound 42] | 
71.1 | Cc1nc(CN2CCCC2C(=O)N2CCc3nc(NC(=O)[C@@H]4CCN(C#N)C4)sc3C2)no1 (some centres unmarked) [compound 43] | 
71.6 | Cc1oc(-c2ccco2)nc1CC(=O)N1CCc2nc(NC(=O)[C@@H]3CCN(C#N)C3)sc2C1 [compound 44] | 
68.7 | N#CN1CC[C@@H](C(=O)Nc2nc3c(s2)CN(C(=O)c2ccccc2OCc2ccncc2)CC3)C1 [compound 45] | 
71.3 | COc1ccc(N2CCN(C(C)C(=O)N3CCc4nc(NC(=O)[C@@H]5CCN(C#N)C5)sc4C3)CC2)cc1 (some centres unmarked) [compound 46] | 
75.4 | Cc1cc(C)c(C(=O)N2CCc3nc(NC(=O)[C@@H]4CCN(C#N)C4)sc3C2)c(OCC2CCCCC2)n1 [compound 47] | 
79.8 | N#CN1CC[C@@H](C(=O)Nc2nc3c(s2)CN(C(=O)c2ccc(S(=O)(=O)NC4CC4)cc2)CC3)C1 [compound 48] | 
70.8 | N#CN1CC[C@@H](C(=O)Nc2nc3c(s2)CN(C(=O)c2cc(-c4ccc(Cl)cc4)oc2C(F)(F)F)CC3)C1 [compound 49] | 
86.7 | N#CN1CC[C@@H](C(=O)Nc2nc3c(s2)CN(C(=O)c2cccc(S(=O)(=O)Nc4ccc(Cl)cc4)c2)CC3)C1 [compound 50] | 
85.7 | N#CN1CC[C@@H](C(=O)Nc2nc3c(s2)CN(C(=O)c2ccn(-c4ncc(C(F)(F)F)cc4Cl)n2)CC3)C1 [compound 51] | 
78.3 | N#CN1CC[C@@H](C(=O)Nc2nc3c(s2)CN(C(=O)Cc2coc(-c4ccccc4)n2)CC3)C1 [compound 52] | 

inhibition at 1.25 µM [1] [%] | Structure (SMILES) | inhibition at 1.25 µM [%]
64.9 | Cn1cc(NS(=O)(=O)c2ccsc2C(=O)N2CCc3nc(NC(=O)[C@@H]4CCN(C#N)C4)sc3C2)cn1 [compound 53] | 
80.8 | N#CN1CC[C@@H](C(=O)Nc2nc3c(s2)CN(C(=O)CC(NS(=O)(=O)c2ccccc2)c2ccc(Cl)cc2)CC3)C1 (some centres unmarked) [compound 54] | 
67.6 | N#CN1CC[C@@H](C(=O)Nc2nc3c(s2)CN(C(=O)c2c[nH]nc2-c2cccnc2)CC3)C1 [compound 56] | 
84.9 | N#CN1CC[C@@H](C(=O)Nc2nc3c(s2)CN(C(=O)Cc2ccc(NS(=O)(=O)c4c(Cl)cccc4Cl)cc2)CC3)C1 [compound 57] | 
74.4 | N#CN1CC[C@@H](C(=O)Nc2nc3c(s2)CN(C(=O)c2csc(-c4cnccn4)n2)CC3)C1 [compound 58] | 
69.8 | N#CN1CC[C@@H](C(=O)Nc2nc3c(s2)CN(C(=O)c2ccc(Oc4cccc(Cl)c4Cl)nn2)CC3)C1 [compound 60] | 
70.5 | CC1CC1C(=O)N1CCCCC1C(=O)N1CCc2nc(NC(=O)[C@@H]3CCN(C#N)C3)sc2C1 (some centres unmarked) [compound 61] | 
78.9 | N#CN1CC[C@@H](C(=O)Nc2nc3c(s2)CN(C(=O)c2ncoc2-c2ccco2)CC3)C1 [compound 62] | 
72.7 | COc1cc(C(=O)N2CCc3nc(NC(=O)[C@@H]4CCN(C#N)C4)sc3C2)ccc1OCc1c(C)noc1C [compound 63] | 
87 | N#CN1CC[C@@H](C(=O)Nc2nc3c(s2)CN(C(=O)Cc2ccc(S(=O)(=O)N4CCOCC4)s2)CC3)C1 [compound 65] | 
70.6 | N#CN1CC[C@@H](C(=O)Nc2nc3c(s2)CN(C(=O)c2cc(OCc4ccccc4)ccn2)CC3)C1 [compound 66] | 
72.7 | CN(Cc1ccco1)c1ccccc1C(=O)N1CCc2nc(NC(=O)[C@@H]3CCN(C#N)C3)sc2C1 [compound 67] | 
66.5 | Cc1cccc(C(=O)N2CCCCC2C(=O)N2CCc3nc(NC(=O)[C@@H]4CCN(C#N)C4)sc3C2)n1 (some centres unmarked) [compound 68] | 
70.5 | Cc1nc(-c2c(C)c(C)nn(C)c2=O)sc1C(=O)N1CCc2nc(NC(=O)[C@@H]3CCN(C#N)C3)sc2C1 [compound 69] | 
85.9 | N#CN1CC[C@@H](C(=O)Nc2nc3c(s2)CN(C(=O)c2cnc(COc4ccccc4)s2)CC3)C1 [compound 70] | 
69.5 | CC1=NN(c2ccc(C(=O)N3CCc4nc(NC(=O)[C@@H]5CCN(C#N)C5)sc4C3)cc2)CC1 [compound 71] | 
87 | Cc1oc(Cn2cc(Br)cn2)cc1C(=O)N1CCc2nc(NC(=O)[C@@H]3CCN(C#N)C3)sc2C1 [compound 72] | 
